Experimental findings from patent US7560450B2, “Xanthine derivatives, the preparation thereof and their use as pharmaceutical compositions” (Boehringer Ingelheim Pharma GmbH & Co., KG, priority 2002, dated 2009) are described below.

By IC50 is commonly meant the concentration needed to halve the response being measured.

One series has as its system rats. Briefly: Tolerability after oral administration to rats (behaviour). The class given is in vivo. As to conditions: 10 mg/kg.
With `CC#CCn1c(N2CCC[C@@H](N)C2)nc2c1c(=O)n(CC(=O)Nc1ccccn1)c(=O)n2C` [Example 1(3), 1-{[(pyridin-2-yl)aminocarbonyl]methyl}-3-methyl-7-(2-butyn-1-yl)-8-[(R)-3-amino-piperidin-1-yl]-xanthine], the “changes in the animals' behaviour” value is listed as “no changes in the animals' behaviour could be detected”.

For a further series, the target named is T1, DPP-IV (Homo sapiens, UniProt P27487).
T1 construct: an extract of human colon carcinoma cell line Caco-2 is used as the DPP IV source; endogenous in cells; host or cells: Caco-2 (human colon carcinoma), differentiated to induce DPP-IV expression; Nonidet-P40 solubilised extract
T1 sequence (P27487 whole entry): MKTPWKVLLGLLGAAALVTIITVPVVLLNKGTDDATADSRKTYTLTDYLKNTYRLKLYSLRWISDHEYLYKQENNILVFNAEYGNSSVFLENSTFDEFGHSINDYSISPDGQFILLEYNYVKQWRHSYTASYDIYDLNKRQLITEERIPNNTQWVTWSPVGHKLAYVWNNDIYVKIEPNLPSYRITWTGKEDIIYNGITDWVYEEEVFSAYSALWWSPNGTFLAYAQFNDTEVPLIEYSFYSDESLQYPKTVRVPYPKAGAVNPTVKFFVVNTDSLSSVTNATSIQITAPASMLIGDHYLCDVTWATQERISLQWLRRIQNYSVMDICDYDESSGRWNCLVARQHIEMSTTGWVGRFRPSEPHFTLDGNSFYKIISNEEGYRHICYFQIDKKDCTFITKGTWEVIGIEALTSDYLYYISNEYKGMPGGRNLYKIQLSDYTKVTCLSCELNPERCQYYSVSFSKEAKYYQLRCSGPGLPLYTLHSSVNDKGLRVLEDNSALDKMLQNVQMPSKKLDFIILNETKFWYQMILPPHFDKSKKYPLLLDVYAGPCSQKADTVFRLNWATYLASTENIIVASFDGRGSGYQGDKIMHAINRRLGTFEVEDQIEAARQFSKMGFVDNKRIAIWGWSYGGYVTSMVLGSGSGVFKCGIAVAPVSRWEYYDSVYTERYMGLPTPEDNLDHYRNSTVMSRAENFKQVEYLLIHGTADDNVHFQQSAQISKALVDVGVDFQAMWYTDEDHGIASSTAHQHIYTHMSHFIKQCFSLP
Description: DPP-IV assay with Caco-2 cell extract as DPP IV source. The class given is biochemical. To be noted: extract of human colon carcinoma cell line Caco-2 as DPP IV source; substrate AFC 100 μM; 60 minutes at ambient temperature; 11 measuring points; read-out: DPP IV inhibition IC50. How it is done:
The differentiation of the cells in order to induce the DPP-IV expression was carried out as described by Reiher et al. in an article entitled “Increased expression of intestinal cell line Caco-2”, which appeared in Proc. Natl. Acad. Sci. Vol. 90, pages 5757-5761 (1993). The cell extract was obtained from cells solubilised in a buffer (10 mM Tris HCl, 0.15 M NaCl, 0.04 t.i.u. aprotinin, 0.5% Nonidet-P40, pH 8.0) by centrifuging at 35,000 g for 30 minutes at 4° C. (to remove cell debris).
The DPP-IV assay was carried out as follows:
50 μl substrate solution (AFC; AFC is amido-4-trifluoromethylcoumarin), final concentration 100 μM, were placed in black microtitre plates. 20 μl of assay buffer (final concentrations 50 mM Tris HCl pH 7.8, 50 mM NaCl, 1% DMSO) was pipetted in. The reaction was started by adding 30 μl of solubilised Caco-2 protein (final concentration 0.14 μg of protein per well). The test substances to be investigated were typically added prediluted in 20 μl, and the volume of assay buffer was then reduced accordingly. The reaction was carried out at ambient temperature, incubating for 60 minutes. Then the fluorescence was measured in a Victor 1420 Multilabel Counter, the excitation wavelength being 405 nm and the emission wavelength being 535 nm. Blank readings (corresponding to 0% activity) were obtained in mixtures without any Caco-2 protein (volume replaced by assay buffer), control values (corresponding to 100% activity) were obtained in mixtures with no substance added. The potency of the test substances in question, expressed as IC50 values, was calculated from dosage/activity curves consisting of 11 measuring points in each case.
In the case of `CC#CCn1c(N2CCC[C@@H](N)C2)nc2c1c(=O)n(CC(=O)NCc1ccccc1)c(=O)n2C` [1(1), 1-[(benzylaminocarbonyl)methyl]-3-methyl-7-(2-butyn-1-yl)-8-[(R)-3-amino-piperidin-1-yl]-xanthine], the IC50 was determined as 46 nM.

Regarding `CC#CCn1c(N2CCC[C@@H](N)C2)nc2c1c(=O)n(CC(=O)Nc1ccccc1)c(=O)n2C` [1(2), 1-[(phenylaminocarbonyl)methyl]-3-methyl-7-(2-butyn-1-yl)-8-[(R)-3-amino-piperidin-1-yl]-xanthine], the IC50 was 26 nM.

With `CC#CCn1c(N2CCC[C@@H](N)C2)nc2c1c(=O)n(CC(=O)OCc1cccnc1)c(=O)n2C` [1(4), 1-{[(pyridin-3-yl)methoxycarbonyl]methyl}-3-methyl-7-(2-butyn-1-yl)-8-[(R)-3-amino-piperidin-1-yl]-xanthine], the IC50 turned out to be 13 nM.

Regarding `CC#CCn1c(N2CCC[C@@H](N)C2)nc2c1c(=O)n(CC(=O)Nc1cccnc1)c(=O)n2C` [1(5), 1-{[(pyridin-3-yl)aminocarbonyl]methyl}-3-methyl-7-(2-butyn-1-yl)-8-[(R)-3-amino-piperidin-1-yl]-xanthine], the IC50 was found to be 7 nM.

As for `CC#CCn1c(N2CCC[C@@H](N)C2)nc2c1c(=O)n(CC(=O)Nc1ccccc1C)c(=O)n2C` [1(6), 1-{[(2-methyl-phenyl)aminocarbonyl]methyl}-3-methyl-7-(2-butyn-1-yl)-8-[(R)-3-amino-piperidin-1-yl]-xanthine], the IC50 worked out at 722 nM.

For the compound `CC#CCn1c(N2CCC[C@@H](N)C2)nc2c1c(=O)n(CC(=O)Nc1ccccc1[N+](=O)[O-])c(=O)n2C` [1(7), 1-{[(2-nitro-phenyl)aminocarbonyl]methyl}-3-methyl-7-(2-butyn-1-yl)-8-[(R)-3-amino-piperidin-1-yl]-xanthine], the IC50 was 4 nM.

Regarding `CC#CCn1c(N2CCCC(N)C2)nc2c1c(=O)n(CC(=O)Nc1ccc(C#N)cc1)c(=O)n2C` (stereo not shown) [1(8), 1-{[(4-cyano-phenyl)aminocarbonyl]methyl}-3-methyl-7-(2-butyn-1-yl)-8-(3-amino-piperidin-1-yl)-xanthine], the IC50 worked out at 42 nM.

With `CC#CCn1c(N2CCC[C@@H](N)C2)nc2c1c(=O)n(CC(=O)Nc1ccccc1OC)c(=O)n2C` [1(9), 1-{[(2-methoxy-phenyl)aminocarbonyl]methyl}-3-methyl-7-(2-butyn-1-yl)-8-[(R)-3-amino-piperidin-1-yl]-xanthine], the IC50 came out at 32 nM.

With `CC#CCn1c(N2CCCC(N)C2)nc2c1c(=O)n(CC(=O)COc1ccccc1)c(=O)n2C` (stereo not shown) [1(10), 1-(2-oxo-3-phenoxy-propyl)-3-methyl-7-(2-butyn-1-yl)-8-(3-amino-piperidin-1-yl)-xanthine], the IC50 stood at 286 nM.

For `CC#CCn1c(N2CCCC(N)C2)nc2c1c(=O)n(CC(=O)NCc1ccccc1N)c(=O)n2C` (stereo not shown) [1(11), 1-[(2-amino-benzylaminocarbonyl)methyl]-3-methyl-7-(2-butyn-1-yl)-8-(3-amino-piperidin-1-yl)-xanthine], the IC50 stood at 28 nM.

As to `CC#CCn1c(N2CCC[C@@H](N)C2)nc2c1c(=O)n(CC(=O)Nc1ccccn1)c(=O)n2C` [Example 1(3), 1-{[(pyridin-2-yl)aminocarbonyl]methyl}-3-methyl-7-(2-butyn-1-yl)-8-[(R)-3-amino-piperidin-1-yl]-xanthine], the IC50 was found to be 4 nM.

For `CC#CCn1c(N2CCC[C@@H](N)C2)nc2c1c(=O)n(CC(=O)OCc1ccccc1)c(=O)n2C` [Example 1, 1-[(benzyloxycarbonyl)methyl]-3-methyl-7-(2-butyn-1-yl)-8-[(R)-3-amino-piperidin-1-yl]-xanthine], the IC50 was determined as 27 nM.
